# Source: patent US4774381A, “Herbicide resistant tobacco” (E. I. Du Pont de Nemours and Company, priority 1985, dated 1988)
# What was measured:
# [1] = tested on: acetolactate synthase (ALS), Isolate 24 (S4/+) extract; experiment: ALS activity assay in cell extracts; assay type: biochemical, Nicotiana tabacum
# Protocol: (§1) Cell suspension cultures of normal (H1) and homozygous mutant (Isolate 16) cell lines were washed in C1 liquid medium. After washing, cells were extracted in a 100 mM potassium phosphate buffer (pH 7.5) containing 0.5 mM MgCl2, 1 mM sodium pyruvate, 0.5 mM thiamine pyrophosphate, 10 micromolar flavine-adenine dinucleotide (FAD) and 10 percent (by volume) glycerol. Polyclar AT (BDH Chemicals Ltd) was added to a final concentration of 250 mg per gram fresh weight of tissue. After centrifugation at 27,000xg for 15 minutes at 4°, an equal volume of a saturated solution of amminium sulfate was added to the supernatant fraction. The resultant precipitate (representing a 0 to 50 percent ammonium sulfate fraction) was redissolved in 100 mM potassium phosphate buffer (pH 7.5) containing 0.5 mM MgCl2, 1 mM sodium pyruvate, and salts were removed by passage through a Sephadex G-25 (Pharmacia PD-10) column.
# (§2) ALS activity was assayed in a total volume of 500 microliters containing 100 microliters of the column eluate, 65 mM potassium phosphate buffer (pH 7.5) containing 10 mM MgCl2, 40 mM sodium pyruvate, 250 micromolar thiamine pyrophosphate, 23 micromolar FAD, and 1, 5, 10, 50, 100, 500 or 1000 ppb chlorsulfuron or sulfometuron-methyl. After incubation at 30° for 90 minutes, 250 microliters of 6N H2 SO4 was added to each assay tube, and the tubes were incubated at 55° for 10 minutes to terminate the enzymatic reaction and achieve complete conversion of acetolactate to acetoin. Acetoin content was then measured by a modification of the procedure described by Westerfield, J. Biol. Chem. 161:495 (1945). To each tube was added sequentially 100 microliters 50 percent NaOH, 150 microliters 0.5 percent creatine, and 150 microliters 5 percent alpha-napthol (in 2.5N NaOH). Color development was accelerated by incubation at 55° for 10 minutes. Tubes were then centrifuged, and the optical density was read at 530 nm. Background optical densities, which were subtracted from the optical density values of the reactions, were determined for each extract from parallel assays to which the enzyme extract was added after the addition of 6N H2 SO4. Protein concentrations were measured with Bio-Rad Protein Assay reagent with bovine serum albumin as a standard. Data points and specific activities, which are set forth below and in FIG. 2, represent the average values of at least three independent determinations. ALS activities are presented in FIG. 2 as percent activity in the absence of herbicide.
# (§3) Responses to chlorsulfuron were determined for ALS activities in extracts of cells suspension cultures derived from nine individuals that differed with resepct to the S4 mutation. As described above, these individuals were produced by self-fertilization of an S4/+ heterozygote, and their genotypes were established by means of progeny analysis. Callus and plant phenotypes were determined by growth responses of cell cultures and seedlings, respectively, on herbicide-supplemented medium. […] In contrast, all individuals homozygous for the S4 mutation contained a highly resistant form of the enzyme. […] The correlation between both callus and plant phenotype and the response of ALS activity in vitro to the herbicide is both absolute and quantitative.
# [2] = tested on: acetolactate synthase (ALS), Isolate 27 (S4/S4) extract; experiment: ALS activity assay in cell extracts; assay type: biochemical, Nicotiana tabacum
# Protocol: as §1, §2, §3
# [3] = tested on: acetolactate synthase (ALS), Isolate 1 (+/+) extract; experiment: ALS activity assay in cell extracts; assay type: biochemical, Nicotiana tabacum
# Protocol: as §1, §2, §3
# [4] = tested on: acetolactate synthase (ALS), Isolate 30 (S4/S4) extract; experiment: ALS activity assay in cell extracts; assay type: biochemical, Nicotiana tabacum
# Protocol: as §1, §2, §3
# [5] = tested on: acetolactate synthase (ALS), Isolate 9 (S4/+) extract; experiment: ALS activity assay in cell extracts; assay type: biochemical, Nicotiana tabacum
# Protocol: as §1, §2, §3
# [6] = tested on: Isolate 16 (S4/S4) callus culture; experiment: Callus growth on chlorsulfuron-supplemented medium; assay type: cell-based, Nicotiana tabacum; details: chlorsulfuron at 5 ppb (14 nM); note: key: Callus cultures capable of growth on this medium are designated R (resistant); S denotes sensitive callus cultures that did not grow in the presence of the herbicide
# Protocol: (§4) Table 7, below, indicates sensitivity to chlorsulfuron of ALS activities in progeny of an S4/+ heterozygote. Data are presented as percent of ALS activity in the absence of chlorsulfuron. Each number represents the average of at least three independent experiments. Callus cultures initiated from the individual isolates were tested for growth on medium supplemented with chlorsulfuron at 5 ppb (14 nM).
# [7] = tested on: Isolate 23 (S4/+) callus culture; experiment: Callus growth on chlorsulfuron-supplemented medium; assay type: cell-based, Nicotiana tabacum; details: chlorsulfuron at 5 ppb (14 nM); note: key: Callus cultures capable of growth on this medium are designated R (resistant); S denotes sensitive callus cultures that did not grow in the presence of the herbicide
# Protocol: as §4
# [8] = tested on: Isolate 9 (S4/+) callus culture; experiment: Callus growth on chlorsulfuron-supplemented medium; assay type: cell-based, Nicotiana tabacum; details: chlorsulfuron at 5 ppb (14 nM); note: key: Callus cultures capable of growth on this medium are designated R (resistant); S denotes sensitive callus cultures that did not grow in the presence of the herbicide
# Protocol: as §4
# [9] = tested on: Isolate 27 (S4/S4) callus culture; experiment: Callus growth on chlorsulfuron-supplemented medium; assay type: cell-based, Nicotiana tabacum; details: chlorsulfuron at 5 ppb (14 nM); note: key: Callus cultures capable of growth on this medium are designated R (resistant); S denotes sensitive callus cultures that did not grow in the presence of the herbicide
# Protocol: as §4
# [10] = tested on: Isolate 1 (+/+) callus culture; experiment: Callus growth on chlorsulfuron-supplemented medium; assay type: cell-based, Nicotiana tabacum; details: chlorsulfuron at 5 ppb (14 nM)
# Protocol: as §4
# [11] = tested on: acetolactate synthase (ALS), Isolate 23 (S4/+) extract; experiment: ALS activity assay in cell extracts; assay type: biochemical, Nicotiana tabacum
# Protocol: as §1
# as §2, with “and 1, 5, 10, 50, 100, 500 or 1000 ppb chlorsulfuron or sulfometuron-methyl.” left out
# as §3
# [12] = tested on: acetolactate synthase (ALS), Isolate 10 (S4/+) extract; experiment: ALS activity assay in cell extracts; assay type: biochemical, Nicotiana tabacum
# Protocol: as §1
# as §2, with “and 1, 5, 10, 50, 100, 500 or 1000 ppb chlorsulfuron or sulfometuron-methyl.” left out
# as §3
structure (smiles),measurement,setting,value
"COc1nc(C)nc(NC(=O)NS(=O)(=O)c2ccccc2Cl)n1 [Chlorsulfuron, chlorsulfuron]",Uninhibited activity (%) in the Presence of Chlorsulfuron,[1]; 10 ppb,60%
same,Uninhibited activity (%) in the Presence of Chlorsulfuron,[1]; 30 ppb,47%
same,Uninhibited activity (%) in the Presence of Chlorsulfuron,[1]; 100 ppb,41%
same,Uninhibited activity (%) in the Presence of Chlorsulfuron,[2]; 10 ppb,88%
same,Uninhibited activity (%) in the Presence of Chlorsulfuron,[2]; 30 ppb,82%
same,Uninhibited activity (%) in the Presence of Chlorsulfuron,[2]; 100 ppb,79%
same,Uninhibited activity (%) in the Presence of Chlorsulfuron,[3]; 10 ppb,42%
same,Uninhibited activity (%) in the Presence of Chlorsulfuron,[3]; 30 ppb,29%
same,Uninhibited activity (%) in the Presence of Chlorsulfuron,[3]; 100 ppb,23%
same,Uninhibited activity (%) in the Presence of Chlorsulfuron,[4]; 10 ppb,89%
same,Uninhibited activity (%) in the Presence of Chlorsulfuron,[4]; 30 ppb,83%
same,Uninhibited activity (%) in the Presence of Chlorsulfuron,[4]; 100 ppb,81%
same,Uninhibited activity (%) in the Presence of Chlorsulfuron,[5]; 10 ppb,59%
same,Uninhibited activity (%) in the Presence of Chlorsulfuron,[5]; 30 ppb,50%
same,Uninhibited activity (%) in the Presence of Chlorsulfuron,[5]; 100 ppb,42%
same,Callus Phenotype,[6],R
same,Callus Phenotype,[7],R
same,Callus Phenotype,[8],R
same,Callus Phenotype,[9],R
same,Callus Phenotype,[10],S
same,Uninhibited activity (%) in the Presence of Chlorsulfuron,[11]; 10 ppb,64%
same,Uninhibited activity (%) in the Presence of Chlorsulfuron,[11]; 30 ppb,53%
same,Uninhibited activity (%) in the Presence of Chlorsulfuron,[11]; 100 ppb,46%
same,Uninhibited activity (%) in the Presence of Chlorsulfuron,[12]; 10 ppb,61%
same,Uninhibited activity (%) in the Presence of Chlorsulfuron,[12]; 30 ppb,52%
same,Uninhibited activity (%) in the Presence of Chlorsulfuron,[12]; 100 ppb,45%
